Experimental data from US8232287B2, “Pyrimidyl indoline compound” (Daiichi Sankyo Company, Limited, priority 2007, dated 2012).

Tested on: Mice C57/BL6J
Test: Oral glucose tolerance test (oGTT) using mice
Assay type: in vivo
Conditions: Mus musculus, 2 h; blood glucose AUC vs vehicle-administered group; fasted male C57/BL6J mice; 1 mg/ml suspension in 0.5% methylcellulose given orally 30 min before oral glucose load; plasma glucose at pre, 15, 30, 60, 120 min; read-out: Rate of decrease in AUC (%)
Method: Oral Glucose Tolerance Test (oGTT) Using Mice
2.0 to 8.0 mg of a test compound was weighed and then placed in an agate mortar. While the compound was pulverized, a 0.5% methylcellulose solution was added thereto to prepare a 1 mg/ml suspension. Mice C57/BL6J (6- to 8-week-old male) were purchased from Charles River Laboratories Japan Inc. and raised in a cage until they became 9- to 13-week-old. The mice were fasted after 5 to 6 p.m. of the day before the test. On the test day, blood was collected from the tail vein, and the preceding prepared suspension was orally administered to each of the mice. Thirty minutes after administration, blood was further collected from the tail vein (plasma glucose level in this blood was used as a pre-value), and a 20 to 30% glucose solution was then orally administered thereto at a dose of 10 ml/kg for glucose load. After the glucose load, blood was further collected from the tail vein at time points 15, 30, 60, and 120 minutes. The collected blood was centrifuged to separate plasma. The pre-value and plasma glucose levels at 15, 30, 60, and 120 minutes after the glucose load were measured using Glucoroder GXT (Shino-Test Corp.), and the rate of decrease in blood glucose AUC (%) from a vehicle-administered group was calculated. To this vehicle-administered group, a 0.5% methylcellulose solution was administered instead of the suspension of the compound.

CC(C)OC(=O)N1CC[C@H](Oc2cc(N3CCc4cc(S(C)(=O)=O)ccc43)ncn2)[C@H](F)C1 (relative stereo) [Example 117, isopropyl cis-3-fluoro-4-[6-(5-methanesulfonyl-2,3-dihydro-indol-1-yl)-pyrimidin-4-yloxy]-piperidine-1-carboxylate]
inhibition in vivo at 1000 µg/mL: 27%

CC(C)(C)OC(=O)N1CCC(Oc2cc(N3CCc4cc(S(C)(=O)=O)ccc43)ncn2)CC1 [Example 1, tert-butyl 4-({6-[5-(methylsulfonyl)indolin-1-yl]pyrimidin-4-yl}oxy)piperidine-1-carboxylate]
inhibition in vivo at 1000 µg/mL: 28%

CC(C)OC(=O)N1CCC(Oc2cc(N3CCc4cc(S(C)(=O)=O)ccc43)ncn2)CC1 [Example 2, isopropyl 4-({6-[5-(methylsulfonyl)indolin-1-yl]pyrimidin-4-yl}oxy)piperidine-1-carboxylate]
inhibition in vivo at 1000 µg/mL: 22%

CCS(=O)(=O)c1ccc2c(c1)CCN2c1cc(OC2CCN(C(=O)OCC(C)C)CC2)ncn1 [Example 22, isobutyl 4-({6-[5-(ethylsulfonyl)indolin-1-yl]pyrimidin-4-yl}oxy)piperidine-1-carboxylate]
inhibition in vivo at 1000 µg/mL: 21%

CCS(=O)(=O)c1ccc2c(c1)CCN2c1cc(OC2CCN(C(=O)OC(C)C)CC2)ncn1 [Example 31, isopropyl 4-({6-[5-(ethylsulfonyl)indolin-1-yl]pyrimidin-4-yl}oxy)piperidine-1-carboxylate]
inhibition in vivo at 1000 µg/mL: 20%

CS(=O)(=O)c1ccc2c(c1)CCN2c1cc(OC2CCN(C(=O)OCC3CC3)CC2)ncn1 [Example 44, cyclopropylmethyl 4-({6-[5-(methylsulfonyl)indolin-1-yl]pyrimidin-4-yl}oxy)piperidine-1-carboxylate]
inhibition in vivo at 1000 µg/mL: 18%

CCS(=O)(=O)c1ccc2c(c1)CCN2c1cc(OC2CCN(C(=O)OCC(F)F)CC2)ncn1 [Example 60, 2,2-difluoroethyl 4-({6-[5-(ethylsulfonyl)indolin-1-yl]pyrimidin-4-yl}oxy)piperidine-1-carboxylate]
inhibition in vivo at 1000 µg/mL: 22%

C[S+]([O-])c1ccc2c(c1)CCN2c1cc(OC2CCN(C(=O)OC(C)(C)C)CC2)ncn1 (stereo not drawn) [Example 80, tert-butyl 4-({6-[5-(methylsulfinyl)indolin-1-yl]pyrimidin-4-yl}oxy)piperidine-1-carboxylate]
inhibition in vivo at 1000 µg/mL: 19%

COc1c(OC2CCN(C(=O)OC(C)C)CC2)ncnc1N1CCc2cc(S(C)(=O)=O)ccc21 [Example 83, isopropyl 4-({5-methoxy-6-[5-(methylsulfonyl)indolin-1-yl]pyrimidin-4-yl}oxy)piperidine-1-carboxylate]
inhibition in vivo at 1000 µg/mL: 20%

CC(C)(C)OC(=O)N1CCC(Oc2cc(N3CCc4cc(S(=O)(=O)CCF)ccc43)ncn2)CC1 [Example 85, tert-butyl 4-[(6-{5-[(2-fluoroethyl)sulfonyl]indolin-1-yl}pyrimidin-4-yl)oxy]piperidine-1-carboxylate]
inhibition in vivo at 1000 µg/mL: 27%

CC(C)CC(=O)N1CCC(Oc2cc(N3CCc4cc(S(C)(=O)=O)ccc43)ncn2)CC1 [Example 92, 1-(6-{[1-(3-methylbutanoyl)piperidin-4-yl]oxy}pyrimidin-4-yl)-5-(methylsulfonyl)indoline]
inhibition in vivo at 1000 µg/mL: 16%

CS(=O)(=O)c1ccc2c(c1)CCN2c1cc(OC2CCN(C(=O)Oc3ccc(F)cc3)CC2)ncn1 [Example 93, 4-fluorophenyl 4-({6-[5-(methylsulfonyl)indolin-1-yl]pyrimidin-4-yl}oxy)piperidine-1-carboxylate]
inhibition in vivo at 1000 µg/mL: 15%

CS(=O)(=O)c1ccc2c(c1)CCN2c1cc(OC2CCN(C(=O)OCC(F)(F)F)CC2)ncn1 [Example 104, 2,2,2-trifluoroethyl 4-({6-[5-(methylsulfonyl)indolin-1-yl]pyrimidin-4-yl}oxy)piperidine-1-carboxylate]
inhibition in vivo at 1000 µg/mL: 10%

C[S+]([O-])c1ccc2c(c1)CCN2c1cc(OC2CCN(C(=O)OCC(F)(F)F)CC2)ncn1 (stereo not drawn) [Example 116, 2,2,2-trifluoroethyl 4-({6-[5-(methylsulfinyl)indolin-1-yl]pyrimidin-4-yl}oxy)piperidine-1-carboxylate]
inhibition in vivo at 1000 µg/mL: 17%

C[S+]([O-])c1ccc2c(c1)CCN2c1cc(OC2CCN(C(=O)OCC3CC3)CC2)ncn1 (stereo not drawn) [Example 118, cyclopropylmethyl 4-({6-[5-(methylsulfinyl)indolin-1-yl]pyrimidin-4-yl}oxy)piperidine-1-carboxylate]
inhibition in vivo at 1000 µg/mL: 16%
